The test system of the assay is slow reacting substance of anaphylaxis (SRS-A). Briefly: SRS-A antagonism on isolated guinea pig ileum. Further details: species or system guinea pig ileum (SRS-A from rat). The conditions noted are these: isolated guinea pig ileum strips, rat SRS-A, tyrode with atropine and mepyramine; 50% inhibition per method; read-out: SRS-A antagonism on Guinea Pig Ileum: Approximate concentration to give inhibition of a than maximal response to SRS-A. From the text: The compounds have been evaluated as direct antagonists of slow reacting substance of anaphylaxis (SRS-A) by assay using the isolated guinea pig ileum.
SRS-A rat was obtained from the peritoneal cavity of the rat after passive peritoneal anaphylaxis by a method based on that of R. P. Orange, D. J. Stechschulte and K. F. Austen, J. Immunology, 105 1087 (1970) as described by B. A. Spicer, J. W. Ross and H. Smith, Clin. exp. Immunol. 1975, 21, 419. The sensitizing serum containing reaginic antibody was produced in rats as described by B. A. Spicer, et. al. ibid.
2 ml of a 1 in 5 dilution of the sensitizing serum was injected by the peritoneal route into recipient rats and after 2 hours, 5 ml of tyrode solution containing 0.4 mg/ml ovalbumin (Sigma Grade III) and 50 μg/ml heparin was injected by the same route. Five minutes after challenge the rats were stunned and bled and the peritoneal fluids collected into polycarbonate tubes in ice. After centrifugation at 150 g for 5 minutes the supernatants were combined, heated in a boiling water bath for 5 minutes, cooled and stored at -20° C. The combined peritioneal fluids contained SRS-A and were used in the antagonism studies.
The SRS-A assays were carried out on isolated strips of guinea pig ileum in tyrode solution containing atropine 5 × 10^-7 M and mepyramine 10^-6 M as described by W. E. Brocklehurst, J. Physiology, 151, 416 (1960).
The activity of the antagonists was determined by their ability to reduce submaximal responses induced by SRS-A. The antagonists were added to a 4 ml bath in 0.1 ml volumes in aqueous solution half a minute before the addition of SRS-A and were present during induced contraction. Two or three concentrations of antagonists were used and the percentage inhibition of the SRS-A response plotted against the bath concentration of antagonist. The line of best fit was drawn and the concentration to cause 50% inhibition IC50 read graphically.
In the case of `CCCc1c(OCC(O)COc2ccc3c(O)c([N+](=O)[O-])c(=O)oc3c2)ccc(C(C)=O)c1O` (stereo not drawn) [Example 114, 7-(3-[4-Acetyl-3-hydroxy-2-n-propylphenoxy]-2-hydroxypropoxy)-4-hydroxy-3-nitrocoumarin], the IC50 stood at 10 nM.
Take `O=c1oc2ccc(OCCc3ccccc3)cc2c(O)c1[N+](=O)[O-]` [Example 115, 4-Hydroxy-3-nitro-6-(2-phenylethoxy) coumarin]: the IC50 was determined as 10000 nM.
Next, `O=c1oc2cc(OCCc3ccccc3)ccc2c(O)c1[N+](=O)[O-]` [Example 116, 4-Hydroxy-3-nitro-7-(2-phenylethoxy) coumrin]: 1000 nM; `O=c1oc2ccc(OCCCc3ccccc3)cc2c(O)c1[N+](=O)[O-]` [Example 118, 4-Hydroxy-3-nitro-6-(3-phenylpropoxy) coumarin]: 1000 nM; `O=c1oc2cc(OCCCc3ccccc3)ccc2c(O)c1[N+](=O)[O-]` [Example 119, 4-Hydroxy-3-nitro-7-(3-phenylpropoxy) coumarin]: 1000 nM.
In the case of `CC(=O)c1ccc(CCCOc2ccc3c(O)c([N+](=O)[O-])c(=O)oc3c2)cc1` [Example 120, 7-(3-[4-Acetylphenyl]propoxy)-4-hydroxy-3-nitrocoumarin] it was 1000 nM; in that of `O=c1oc2cc(OCCCCc3ccccc3)ccc2c(O)c1[N+](=O)[O-]` [Example 121, 4-Hydroxy-3-nitro-7-(4-phenylbutoxy) coumarin], 1000 nM.
Next, `O=c1oc2cc(OCCCCc3ccc(Cl)cc3)ccc2c(O)c1[N+](=O)[O-]` [Example 122, 7-(4-[4-Chlorophenyl]butoxy)-4-hydroxy-3-nitrocoumarin]: 1000 nM; `Cc1ccc(CCCCOc2ccc3c(O)c([N+](=O)[O-])c(=O)oc3c2)cc1` [Example 123, 4-Hydroxy-7-(4-[4-methylphenyl]butoxy)-3-nitrocoumarin]: 1000 nM; `O=c1oc2ccc(OCCOc3ccccc3)cc2c(O)c1[N+](=O)[O-]` [Example 125, 4-Hydroxy-3-nitro-6-(2-phenoxyethoxy) coumarin]: 10000 nM.
As for `O=c1oc2cc(OCCOc3ccccc3)ccc2c(O)c1[N+](=O)[O-]` [Example 126, 4-Hydroxy-3-nitro-7-(2-phenoxyethoxy) coumarin], the IC50 was determined as 10000 nM.
In the case of `O=c1oc2ccc(OCCCOc3ccccc3)cc2c(O)c1[N+](=O)[O-]` [Example 128, 4-Hydroxy-3-nitro-6-(3-phenoxypropoxy) coumarin], the IC50 was determined as 1000 nM.
Regarding `O=c1oc2cc(OCCCOc3ccccc3)ccc2c(O)c1[N+](=O)[O-]` [Example 129, 4-Hydroxy-3-nitro-7-(3-phenoxypropoxy) coumarin], the IC50 stood at 1000 nM.
`Cc1cc(OCCCOc2ccccc2)cc2oc(=O)c([N+](=O)[O-])c(O)c12` [Example 130, 4-Hydroxy-5-methyl-3-nitro-7-(3-phenoxypropoxy)]: the IC50 is 1000 nM.
As to `CCCc1c(OCCCOc2ccccc2)ccc2c(O)c([N+](=O)[O-])c(=O)oc12` [Example 131, 4-Hydroxy-3-nitro-7-(3-phenoxy-propoxy) 8-n-propylcoumarin], the IC50 is 1000 nM.
In the case of `CCc1cc2c(O)c([N+](=O)[O-])c(=O)oc2cc1OCCCOc1ccccc1` [Example 132, 6-Ethyl-4-hydroxy-3-nitro-7-(3-phenoxy-propoxy) coumarin] it was 10000 nM; in that of `O=c1oc2cc(OCCCOc3ccc(Cl)cc3)ccc2c(O)c1[N+](=O)[O-]` [Example 133, 7-(3-[4-Chlorophenoxy]propxy-4-hydroxy-3-nitrocoumarin], 1000 nM.
On to `O=C(O)c1ccc(OCCCOc2ccc3c(O)c([N+](=O)[O-])c(=O)oc3c2)cc1` [Example 134, 7-(3-[4-Carboxyphenoxy]propoxy)-4-hydroxy-3-nitrocoumarin], for which the IC50 came to 10000 nM.
As to `COC(=O)c1ccc(OCCCOc2ccc3c(O)c([N+](=O)[O-])c(=O)oc3c2)cc1` [Example 135, 7-(3-[4-Carbomethoxyphenoxy]propoxy)-4-hydroxy-3-nitrocoumarin], the IC50 came to 10000 nM.
Take `CC(=O)c1ccc(OCCCOc2ccc3c(O)c([N+](=O)[O-])c(=O)oc3c2)cc1` [Example 136, 7-(3-[4-Acetylphenoxy]propoxy)-4-hydroxy-3-nitrocoumarin]: the IC50 stood at 1000 nM.
In the case of `Cc1ccc(OCCCOc2ccc3c(O)c([N+](=O)[O-])c(=O)oc3c2)c([N+](=O)[O-])c1` [Example 137, 4-Hydroxy-7-(3-[4-methyl-2-nitrophenoxy]propoxy)-3-nitrocoumarin] it was 10000 nM; in that of `CC(=O)c1ccc(OCCCOc2ccc3c(O)c([N+](=O)[O-])c(=O)oc3c2)cc1O` [Example 138, 7-(3-[4-Acetyl-3-hydroxyphenoxy]propoxy)-4-hydroxy-3-nitrocoumarin], 1000 nM.
In the case of `CCCc1c(OCCCOc2ccc3c(O)c([N+](=O)[O-])c(=O)oc3c2)ccc(C(C)=O)c1O` [Example 139, 7-(3-[4-Acetyl-3-hydroxy-2-n-propylphenoxy]propoxy)-4-hydroxy-3-nitrocoumarin] it was 100 nM; in that of `O=C(O)c1ccc(OCC(O)COc2ccc3c(O)c([N+](=O)[O-])c(=O)oc3c2)cc1` (stereo not drawn) [Example 140, 7-(3-[4-Carboxyphenoxy]-2-hydroxy-propoxy)-4-hydroxy-3-nitrocoumarin], 10000 nM; in that of `O=c1oc2cc(OCC(O)COc3ccccc3)ccc2c(O)c1[N+](=O)[O-]` (stereo not drawn) [Example 141, 4-Hydroxy-7-(2-hydroxy-3-phenoxypropoxy)-3-nitrocoumarin], 10000 nM.
Regarding `CC(=O)c1ccc(OCC(O)COc2ccc3c(O)c([N+](=O)[O-])c(=O)oc3c2)cc1O` (stereo not drawn) [Example 143, 7-(3-[4-Acetyl-3-hydroxyphenoxy]2-hydroxypropoxy)-4-hydroxy-3-nitrocoumarin], the IC50 was 10000 nM.
For `CC(=O)c1ccc(OCC(O)COc2ccc3c(O)c([N+](=O)[O-])c(=O)oc3c2)c(C)c1O` (stereo not drawn) [Example 144, 7-(3-[4-Acetyl-3-hydroxy-2-methyl-phenoxy]-2-hydroxy-propoxy)-4-hydroxy-3-nitrocoumarin], the IC50 was found to be 100 nM.
In the case of `O=c1oc2cc(OCCCCOc3ccccc3)ccc2c(O)c1[N+](=O)[O-]` [Example 150, 4-Hydroxy-3-nitro-7-(4-phenoxybutoxy)-coumarin], the IC50 is 1000 nM.
In the case of `O=c1oc2ccc(OCCCCCOc3ccccc3)cc2c(O)c1[N+](=O)[O-]` [Example 151, 4-Hydroxy-3-nitro-6-(5-phenoxypentoxy)-coumarin] it was 1000 nM; in that of `O=c1oc2cc(OCCCCCOc3ccccc3)ccc2c(O)c1[N+](=O)[O-]` [Example 152, 4-Hydroxy-3-nitro-7-(5-phenoxypentoxy)-coumarin], 1000 nM.
For `O=c1oc2ccc(OCCCCCCOc3ccccc3)cc2c(O)c1[N+](=O)[O-]` [Example 153, 4-hydroxy-3-nitro-6-(6-phenoxyhexoxy) coumarin], the IC50 was found to be 100 nM.
Next, `Cc1cccc(OCCCOc2ccc3c(O)c([N+](=O)[O-])c(=O)oc3c2)c1` [Example 156, 4-Hydroxy-7-(3-[3-methylphenoxy]propoxy)-3-nitrocoumarin]: 1000 nM.
For `Cc1ccc(OCCCOc2ccc3c(O)c([N+](=O)[O-])c(=O)oc3c2)cc1` [Example 157, 4-Hydroxy-7-(3-[4-methylphenoxy]propoxy)-3-nitrocoumarin], the IC50 was 1000 nM.
Next, `COc1ccc(OCCCOc2ccc3c(O)c([N+](=O)[O-])c(=O)oc3c2)cc1` [Example 158, 4-Hydroxy-7-(3-[4-methoxyphenoxy]propoxy)-3-nitrocoumarin]: 1000 nM; `O=c1oc2cc(OCCCOc3ccc(F)cc3)ccc2c(O)c1[N+](=O)[O-]` [Example 159, 7-(3-[4-Fluorophenoxy]propoxy)-4-hydroxy-3-nitrocoumarin]: 100 nM.
For `N#Cc1ccc(OCCCOc2ccc3c(O)c([N+](=O)[O-])c(=O)oc3c2)cc1` [Example 160, 7-(3[4-Cyanophenoxy]-propoxy)-4-hydroxy-3-nitrocoumarin], the IC50 stood at 10000 nM.
Turning to `O=c1oc2cc(OCCCOc3ccc(-c4ccccc4)cc3)ccc2c(O)c1[N+](=O)[O-]` [Example 161, 4-Hydroxy-7-(3-[4-phenylphenoxy]propoxy)-3-nitro-coumarin], the IC50 came out at 10000 nM.
Take `O=c1oc2cc(OCCCOc3ccc4c(c3)CCCC4)ccc2c(O)c1[N+](=O)[O-]` [Example 162, 4-Hydroxy-3-nitro-7-(3-[5,6,7,8-tetrahydro-2-naphthyloxy]propoxy) coumarin]: the IC50 amounted to 10000 nM.
Regarding `CCCc1ccccc1OCC(O)COc1ccc2c(O)c([N+](=O)[O-])c(=O)oc2c1` (stereo not drawn) [Example 163, 4-Hydroxy-7-(2-hydroxy3-[2-n-propylphenoxy]propoxy)-3-nitro-coumarin], the IC50 is 100 nM.

The record behind these values is patent US4136192A, “4-Hydroxy-3-nitro (cyano) coumarins” (Beecham Group Limited, priority 1975, dated 1979).
